The test system of one data set is male C57 mice. The data set is described as follows: Forced swim test. The class given is in vivo. The settings on record: intraperitoneal injection, test 0.5 h after dosing, motionless time in last 4 min. The procedure: Drug: the compound of the present disclosure was first uniformly mixed with 5% DMSO and 5% Solutol® HS 15. hysiological saline was then added to make up 90% of the final volume. The mixture was prepared at an appropriate concentration immediately before use.
Animal: male C57 mice, about 22 g. The animals were randomly divided into a blank control group and test drug groups, 8 animals per group, and mice in each group were administered either the vehicle or the test compound via intraperitoneal injection.
Experimental steps: the mice were subjected to forced swim test 0.5 h after dosing. The water level in the forced swim device was 45 cm, and the water temperature was 25° C. The mice were placed in an experimental room to adapt to the environment for 1 h before the experiment began. When the experiment began, the mice were placed in the device for 6 min, and the whole process was recorded by a camera. Only the motionless time of the mice in the last 4 min was counted when data were analyzed.

Data set [1] in a line: In vivo metabolism (pharmacokinetic) experiment in mice. More on the design: species or system male ICR mice. The conditions noted are these: male, ICR, mouse, po, 10 mg/kg, male ICR mice; for bioavailability: oral 10 mg/kg vs iv 2.5 mg/kg, read-out: F (%); for AUC(0-inf) / Cmax / half-life: oral 10 mg/kg, plasma; for AUC(0-inf): read-out: AUC0-inf(po); for Cmax: read-out: Cmax (po); for half-life: read-out: T1/2 (po) (converted). On the procedure: Animal: male ICR mice. The animals were randomly assigned to treatment groups and fasted for 12 h prior to dosing.
Drug: the compound of the present disclosure was dissolved in a vehicle (5% DMSO+5% Solutol HS15+90% saline). For intravenous (iv) administration, the dose was 2.5 mg/kg with a dosing volume of 5 mL/kg; for oral (po) administration, the dose was 10 mg/kg with a dosing volume of 10 mL/kg body weight. Sample collection and bioanalysis: blood was collected from the orbit of the mice and added into EP tubes containing heparin sodium at 0.083, 0.25, 0.5, 1, 2, 4, 6, and 8 h (n=3 for each time point). Immediately after blood collection, the mice were euthanized by cervical dislocation, and mouse brains were collected at the corresponding time points. All samples were promptly collected, snap-frozen, and stored at −70° C. for later use. Plasma samples were obtained by centrifugation of whole blood. 10 μL of plasma was mixed with 190 μL of internal standard solution (20 ng/ml in acetonitrile containing 0.1% formic acid). After mixing, the samples were centrifuged at 13000 rpm for 10 min, and 120 μL of the supernatant was separately collected. Depending on the sensitivity of the compound, 0.5-10 μL of the supernatant was taken for drug analysis using the appropriate liquid chromatography-tandem mass spectrometry (LC-MS/MS). Each analyte was calibrated and identified using standards. According to brain tissue: the extract (50% acetonitrile/water) at a ratio of 1 g:8 mL was homogenized for 2 min using five 3 mm magnetic beads in an OMNI Bead Ruptor 24 Elite homogenizer at 3.2 m/s and centrifuged at 4° C. and 3000 g for 3 min. 50 μL of the supernatant was mixed with 200 μL of internal standard solution (20 ng/mL in 80% acetonitrile/water). After mixing, the samples were centrifuged at 13,000 rpm for 10 min, and 120 μL of the supernatant was separately collected. Depending on the sensitivity of the compound, 0.5-10 μL of the supernatant was taken for drug analysis using the appropriate LC-MS/MS method. Each analyte was calibrated and identified using standards.
Data analysis: drug concentrations below the lower limit of quantification (LLOQ) were considered zero. Pharmacokinetic parameters were analyzed using PK Solver with a non-compartmental, bolus injection or extravascular input analysis models. Data points below the LLOQ were excluded to improve the efficacy of t1/2 calculation.

Data set [2] in a line: Human liver microsome assay (metabolic stability). It is filed as in vitro ADME. The settings on record: for half-life at 1 μM / CLint scaled at 1 μM: pH 7.4. The procedure: Control and reagent: NADPH, magnesium chloride, testosterone, phosphate buffer, etc. were supplied by Dalian Meilun Biotech Co., Ltd., etc.
Liver microsome: human liver microsomes were supplied by Corning.
Experimental step: the liver microsome incubations were performed in 96-well plates, each incubation system having a volume of 200 μL, in a medium of 0.1 M phosphate buffer (pH 7.4), including liver microsomes at a final concentration of 0.2 mg/mL, 1 μM of the test drug, 3.0 mM MgCl2, 0.01% DMSO, 0.5% acetonitrile, and 2.0 mM NADPH. The incubation system described above without NADPH was pre-incubated at 37° C. for 5 min using a rotary water bath constant temperature oscillator. NADPH was added to initiate the reaction. At 0, 5, 15, 30, and 60 min, 20 μL of the sample was taken out from the incubation system after mixing well and added to 200 μL of acetonitrile containing an internal standard to terminate the reaction. Under the same conditions, 1 μM testosterone was used as a positive control to assess the reliability of the reaction system. For the negative control, phosphate buffer was used instead of NADPH, and all other incubation conditions remained the same. At 60 min, 20 μL of the sample was taken out after mixing well and added to 200 μL of termination solution containing an internal standard to terminate the reaction.
Sample analysis: After treatments such as precipitated protein extraction with an organic solvent, the incubated sample was analyzed using liquid chromatography-tandem mass spectrometry (LC-MS/MS). The concentrations of the test drug or the positive control drug in the sample were semi-quantified. The concentration in the sample was expressed using the ratio of the analyte peak area to the internal standard peak area.
Data processing and analysis: A standard curve of the In residual rate of the drug in the incubation system with respect to the incubation time was plotted by using Excel software, linear regression was performed to obtain a slope k, and the half-life T1/2 (min) and the intrinsic clearance CLint (mL/min/kg) were calculated according to the following formula: […]
In general terms: Liver microsomes are a subcellular fraction often used to study metabolism.

The next data set deals with human SERT (Homo sapiens, UniProt P31645). Put plainly: Inhibitory activity assay against 5-HT transporter (neurotransmitter transporter uptake assay kit). It is filed as cell-based. The conditions noted are these: HEK-293 cells overexpressing human SERT; read-out: 5-HTT (IC50). The procedure:
In HEK-293 cells overexpressing human SERT, the transporter inhibitory effect of the test compound on human SERT was assayed using a Neurotransmitter transporter uptake assay kit (Molecular devices).

A further data set addresses human DAT (Homo sapiens, UniProt Q01959). Put plainly: DAT transporter inhibitory activity test (neurotransmitter transporter uptake assay kit). It is filed as cell-based. The procedure:
Transporter inhibition of human DAT and NET expressed in HEK-293 cells was assessed using a neurotransmitter transporter uptake assay kit. The assay was performed as described in the kit instructions, using centanafadine as a positive control. The specific procedures were as follows:
DAT stably transfected culture: The DAT-HEK cell line was cultured in DMEM medium containing 10% fetal bovine serum and 0.2 mg/mL hygromycin B at 37° C. with 5% carbon dioxide.
DAT stably transfected cell passage: the old medium was removed, and the cells were washed once with PBS; 1 mL of TrypLE™ Express solution was then added, and the cells were incubated at 37° C. for about 2 min. When the cells were detached from the bottom of the dish, about 5 mL of complete medium pre-heated at 37° C. was added. The cell suspension was gently pipetted to separate the aggregated cells. The cell suspension was transferred to a sterile centrifuge tube and centrifuged at 1000 rpm for 5 min. In order to maintain the physiological activity of the cells, the experimental cell confluence was controlled at about 80%.
• a) After overnight transfection of NET cells, the cells were digested with trypsin, resuspended with DMEM+10% Dialyzed FBS medium, seeded into a 384-well plate at 20000 cells/well, and incubated overnight. […] After centrifuging, the plate was incubated at 37° C. for 30 min. • e) A detection reagent was prepared using 1×HBSS, and 16 μL of the detection reagent was added to each well. […] Curve fitting and IC50 calculation were performed using GraphPad Prism software nonlinear regression method.

The mark [3] stands for this setting: human liver microsomes 0.2 mg/mL, 1 μM test drug, NADPH, 37° C., read-out: Half-life (t1/2, min).
Where [4] appears, read: human liver microsomes 0.2 mg/mL, 1 μM test drug, NADPH, 37° C., read-out: Intrinsic clearance (Clint, mL/min/kg).
Setting [5] is: DAT stably transfected HEK cells, read-out: DAT (IC50).

The values that follow come from US20260174739A1 (priority 2022, published 2026).

Read-outs that look alike come from different tables or passages of the source.

Chain of human SERT (P31645 whole entry): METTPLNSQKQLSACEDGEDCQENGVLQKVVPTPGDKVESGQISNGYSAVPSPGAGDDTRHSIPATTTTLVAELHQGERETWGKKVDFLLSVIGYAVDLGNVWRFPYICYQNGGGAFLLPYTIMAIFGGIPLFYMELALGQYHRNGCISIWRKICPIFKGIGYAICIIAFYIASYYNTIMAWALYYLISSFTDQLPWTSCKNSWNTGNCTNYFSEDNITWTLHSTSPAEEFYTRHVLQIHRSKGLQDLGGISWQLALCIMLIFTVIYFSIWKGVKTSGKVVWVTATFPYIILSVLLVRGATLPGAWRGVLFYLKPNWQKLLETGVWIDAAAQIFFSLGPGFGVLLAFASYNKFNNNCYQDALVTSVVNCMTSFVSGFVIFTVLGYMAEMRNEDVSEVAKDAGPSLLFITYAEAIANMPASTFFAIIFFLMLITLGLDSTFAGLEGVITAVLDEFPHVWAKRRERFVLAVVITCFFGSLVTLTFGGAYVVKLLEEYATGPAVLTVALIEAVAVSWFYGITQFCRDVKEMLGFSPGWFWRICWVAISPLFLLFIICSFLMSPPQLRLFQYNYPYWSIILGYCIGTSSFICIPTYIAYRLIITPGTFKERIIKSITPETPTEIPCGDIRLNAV
Chain of human DAT (Q01959 whole entry): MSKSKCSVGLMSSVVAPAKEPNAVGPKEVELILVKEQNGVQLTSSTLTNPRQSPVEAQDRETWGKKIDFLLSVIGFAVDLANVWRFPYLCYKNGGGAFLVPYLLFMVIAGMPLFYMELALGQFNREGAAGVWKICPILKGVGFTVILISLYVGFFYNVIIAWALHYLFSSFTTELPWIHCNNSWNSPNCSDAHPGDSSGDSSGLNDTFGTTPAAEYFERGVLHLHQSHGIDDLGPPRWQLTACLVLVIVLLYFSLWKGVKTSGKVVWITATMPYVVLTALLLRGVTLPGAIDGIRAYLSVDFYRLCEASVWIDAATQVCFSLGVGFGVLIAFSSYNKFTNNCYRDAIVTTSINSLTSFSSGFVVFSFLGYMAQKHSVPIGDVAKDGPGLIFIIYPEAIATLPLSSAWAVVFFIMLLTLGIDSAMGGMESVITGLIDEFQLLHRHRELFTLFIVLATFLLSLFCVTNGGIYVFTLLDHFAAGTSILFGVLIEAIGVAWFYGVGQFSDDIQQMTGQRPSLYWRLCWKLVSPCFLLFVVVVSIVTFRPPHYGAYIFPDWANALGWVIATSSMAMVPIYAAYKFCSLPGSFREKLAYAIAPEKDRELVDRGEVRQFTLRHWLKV

By Cmax is commonly meant the peak of the concentration-time curve. Turning to `Nc1nc2c(s1)CC(N)(c1ccccc1)CC2` (racemic) [rac-A1, 6-phenyl-4,5,6,7-tetrahydrobenzothiazole-2,6-diamine], the “Effective dose” value with male C57 mice is on record as 1 mg/kg. In data set [1], the bioavailability is 132%, the AUC(0-inf) was 2830 ng·h/mL, the Cmax was determined as 413 ng/mL and the half-life is 4.68 h.

Take `Nc1nc2c(s1)CC(N)(c1cccc(OC(F)F)c1)CC2` (racemic) [rac-A256, 6-(3-(difluoromethoxy)phenyl)-4,5,6,7-tetrahydrobenzo[d]thiazole-2,6-diamine]: the “Effective dose” value with male C57 mice is 5 mg/kg.

Take `c1ccc(C2(N3CCCCC3)CCc3ncsc3C2)cc1` (racemic) [rac-A71, 6-phenyl-6-(piperidin-1-yl)-4,5,6,7-tetrahydrobenzothiazole]: in data set [2] (setting [3]), the half-life at 1 μM came out at 210 min. Besides, in data set [2] (setting [4]), the CLint scaled at 1 μM is 13.8 mL/min/kg.

As to `Nc1nc2c(s1)CCC(N)(c1ccccc1)C2` (racemic) [rac-A132, 5-phenyl-4,5,6,7-tetrahydrobenzo[d]thiazole-2,5-diamine], the “Effective dose” value in the data set with male C57 mice stood at 3 mg/kg.

For `CCOc1cccc(C2(N)CCc3nc(N)sc3C2)c1` (racemic) [rac-A228, 6-(3-ethoxyphenyl)-4,5,6,7-tetrahydrobenzo[d]thiazole-2,6-diamine], the “Effective dose” value in the data set on male C57 mice was 5 mg/kg.

As to `c1ccc(C2(N3CCCC3)CCc3[nH]ncc3C2)cc1` (racemic) [rac-A12, 5-phenyl-5-(pyrrolidin-1-yl)-4,5,6,7-tetrahydro-1H-indazole], the “Effective dose” value in the data set with male C57 mice worked out at 1 mg/kg. Further, in data set [2] (human, microsomes), the CLint scaled at 1 μM turned out to be 12.4 mL/min/kg and the half-life at 1 μM amounted to 327 min.

As for `Nc1nc2c(s1)CC(N)(c1cccc(OCC(F)(F)F)c1)CC2` (racemic) [rac-A255, 6-(3-(2,2,2-trifluoroethoxy)phenyl)-4,5,6,7-tetrahydrobenzo[d]thiazole-2,6-diamine], in the data set on male C57 mice, the “Effective dose” value turned out to be 5 mg/kg.

In the case of `Nc1nc2c(s1)CC(N)(c1cccc(OCC3CC3)c1)CC2` (racemic) [rac-A259, 6-(3-(cyclopropylmethoxy)phenyl)-4,5,6,7-tetrahydrobenzo[d]thiazole-2,6-diamine], the “Effective dose” value in the data set with male C57 mice is recorded as 5 mg/kg.

What is called IC50 is the midpoint of a concentration-inhibition curve. With `Nc1nc2c(s1)CC(N)(c1ccccc1F)CC2` (racemic) [rac-A9, 6-(2-fluorophenyl)-4,5,6,7-tetrahydrobenzothiazole-2,6-diamine], the “Effective dose” value with male C57 mice is 1 mg/kg. The IC50 on human SERT is 0.8 µM.

`CCNC1(c2cccc(OC)c2)CCc2nc(N)sc2C1` (racemic) [rac-A226, N^6-ethyl-6-(3-methoxyphenyl)-4,5,6,7-tetrahydrobenzo[d]thiazole-2,6-diamine]: the half-maximal inhibitory concentration (IC50) on human DAT (setting [5]) and on human SERT was 2 µM throughout.

Turning to `Nc1nc2c(s1)CCCC2(N)c1ccccc1` (racemic) [rac-A35, 4-phenyl-4,5,6,7-tetrahydrobenzothiazole-2,4-diamine], the “Effective dose” value in the data set with male C57 mice is listed as 3 mg/kg. In data set [1], the AUC(0-inf) was 5110 ng·h/mL, the Cmax was 1140 ng/mL and the half-life is 2.66 h.

In the case of `CNC1(c2cccc(OC(F)F)c2)CCc2nc(N)sc2C1` (racemic) [rac-A282, 6-(3-(difluoromethoxy)phenyl)-N6-methyl-4,5,6,7-tetrahydrobenzo[d]thiazole-2,6-diamine], in the data set with male C57 mice, the “Effective dose” value amounted to 5 mg/kg.

With `c1ccc(C2(N3CCCC3)CCc3oncc3C2)cc1` (racemic) [rac-A55, 5-phenyl-5-(pyrrolidin-1-yl)-4,5,6,7-tetrahydrobenzo[d]isoxazole], the IC50 on human DAT (setting [5]) worked out at 4.5 µM; at human SERT, 7.2 µM. Moreover, the half-life at 1 μM in data set [2] (setting [3]) is 62 min. Moreover, in data set [2] (setting [4]), the CLint scaled at 1 μM is 65.8 mL/min/kg.

`CCCNC1(c2ccccc2)CCc2nc(N)sc2C1` (racemic) [rac-A7, 6-phenyl-N^6-propyl-4,5,6,7-tetrahydrobenzothiazole-2,6-diamine] came in with an IC50 against human DAT of 4.5 µM. In data set [2] (setting [3]), the half-life at 1 μM is above 120 min. In addition, in data set [1], the bioavailability stood at 55%, the AUC(0-inf) came out at 768 ng·h/mL, the Cmax stood at 208 ng/mL and the half-life was 1.72 h.

Consider `NC1(c2ccccc2)CCCc2scnc21` (racemic) [rac-A32, 4-phenyl-4,5,6,7-tetrahydrobenzothiazol-4-amine], for which the half-life at 1 μM in data set [2] (setting [3]) is 196 min. Also, the CLint scaled at 1 μM in data set [2] (setting [4]) came out at 20.7 mL/min/kg.

Take `C[C@]12CC[C@H]3[C@@H](CCC4=CC(=O)CC[C@@]43C)[C@@H]1CC[C@@H]2O` [Testosterone, testosterone, reference compound]: the “Half-life (t1/2, min)” value in data set [2] (human liver microsomes 0.2 mg/mL, 1 μM test drug, NADPH, 37° C.) is 15.3 min. Besides, in data set [2] (setting [4]), the CLint scaled at 1 μM is 265 mL/min/kg.
